Test results published in patent US9302988B2, “Fluoromethyl-substituted pyrrole carboxamides” (GRÜNENTHAL GMBH, priority 2012, dated 2016).

Biological target: T1, Human CaV2.2 channels (Homo sapiens, UniProt Q00975)
T1 construct: expressed in transfected cells
Assay: Fluorescent assay for CaV2.2 channels using potassium depolarization to induce channel opening (FLIPR, Fluo-4)
Type: cell-based
Settings: 3 μM test compound, 30 mM KCl, HEK293 cells stably expressing human CaV2.2; read-out: %-Inhib (CaV2.2) @3 μM @30 mM KCl
Method in brief: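 HEK293 cells stably co-expressing CaV2.2 with α2δ and β subunits plus Kir2.3 were Fluo-4 loaded, then preincubated 15 min at 25 °C with compound in 30 mM KCl buffer, pH 7.4. Depolarization was by adding buffer containing 210 mM KCl. Inhibition was taken from baseline-normalized peak fluorescence amplitude (ex 480/em 535 nm).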

T1 sequence (Q00975 whole entry): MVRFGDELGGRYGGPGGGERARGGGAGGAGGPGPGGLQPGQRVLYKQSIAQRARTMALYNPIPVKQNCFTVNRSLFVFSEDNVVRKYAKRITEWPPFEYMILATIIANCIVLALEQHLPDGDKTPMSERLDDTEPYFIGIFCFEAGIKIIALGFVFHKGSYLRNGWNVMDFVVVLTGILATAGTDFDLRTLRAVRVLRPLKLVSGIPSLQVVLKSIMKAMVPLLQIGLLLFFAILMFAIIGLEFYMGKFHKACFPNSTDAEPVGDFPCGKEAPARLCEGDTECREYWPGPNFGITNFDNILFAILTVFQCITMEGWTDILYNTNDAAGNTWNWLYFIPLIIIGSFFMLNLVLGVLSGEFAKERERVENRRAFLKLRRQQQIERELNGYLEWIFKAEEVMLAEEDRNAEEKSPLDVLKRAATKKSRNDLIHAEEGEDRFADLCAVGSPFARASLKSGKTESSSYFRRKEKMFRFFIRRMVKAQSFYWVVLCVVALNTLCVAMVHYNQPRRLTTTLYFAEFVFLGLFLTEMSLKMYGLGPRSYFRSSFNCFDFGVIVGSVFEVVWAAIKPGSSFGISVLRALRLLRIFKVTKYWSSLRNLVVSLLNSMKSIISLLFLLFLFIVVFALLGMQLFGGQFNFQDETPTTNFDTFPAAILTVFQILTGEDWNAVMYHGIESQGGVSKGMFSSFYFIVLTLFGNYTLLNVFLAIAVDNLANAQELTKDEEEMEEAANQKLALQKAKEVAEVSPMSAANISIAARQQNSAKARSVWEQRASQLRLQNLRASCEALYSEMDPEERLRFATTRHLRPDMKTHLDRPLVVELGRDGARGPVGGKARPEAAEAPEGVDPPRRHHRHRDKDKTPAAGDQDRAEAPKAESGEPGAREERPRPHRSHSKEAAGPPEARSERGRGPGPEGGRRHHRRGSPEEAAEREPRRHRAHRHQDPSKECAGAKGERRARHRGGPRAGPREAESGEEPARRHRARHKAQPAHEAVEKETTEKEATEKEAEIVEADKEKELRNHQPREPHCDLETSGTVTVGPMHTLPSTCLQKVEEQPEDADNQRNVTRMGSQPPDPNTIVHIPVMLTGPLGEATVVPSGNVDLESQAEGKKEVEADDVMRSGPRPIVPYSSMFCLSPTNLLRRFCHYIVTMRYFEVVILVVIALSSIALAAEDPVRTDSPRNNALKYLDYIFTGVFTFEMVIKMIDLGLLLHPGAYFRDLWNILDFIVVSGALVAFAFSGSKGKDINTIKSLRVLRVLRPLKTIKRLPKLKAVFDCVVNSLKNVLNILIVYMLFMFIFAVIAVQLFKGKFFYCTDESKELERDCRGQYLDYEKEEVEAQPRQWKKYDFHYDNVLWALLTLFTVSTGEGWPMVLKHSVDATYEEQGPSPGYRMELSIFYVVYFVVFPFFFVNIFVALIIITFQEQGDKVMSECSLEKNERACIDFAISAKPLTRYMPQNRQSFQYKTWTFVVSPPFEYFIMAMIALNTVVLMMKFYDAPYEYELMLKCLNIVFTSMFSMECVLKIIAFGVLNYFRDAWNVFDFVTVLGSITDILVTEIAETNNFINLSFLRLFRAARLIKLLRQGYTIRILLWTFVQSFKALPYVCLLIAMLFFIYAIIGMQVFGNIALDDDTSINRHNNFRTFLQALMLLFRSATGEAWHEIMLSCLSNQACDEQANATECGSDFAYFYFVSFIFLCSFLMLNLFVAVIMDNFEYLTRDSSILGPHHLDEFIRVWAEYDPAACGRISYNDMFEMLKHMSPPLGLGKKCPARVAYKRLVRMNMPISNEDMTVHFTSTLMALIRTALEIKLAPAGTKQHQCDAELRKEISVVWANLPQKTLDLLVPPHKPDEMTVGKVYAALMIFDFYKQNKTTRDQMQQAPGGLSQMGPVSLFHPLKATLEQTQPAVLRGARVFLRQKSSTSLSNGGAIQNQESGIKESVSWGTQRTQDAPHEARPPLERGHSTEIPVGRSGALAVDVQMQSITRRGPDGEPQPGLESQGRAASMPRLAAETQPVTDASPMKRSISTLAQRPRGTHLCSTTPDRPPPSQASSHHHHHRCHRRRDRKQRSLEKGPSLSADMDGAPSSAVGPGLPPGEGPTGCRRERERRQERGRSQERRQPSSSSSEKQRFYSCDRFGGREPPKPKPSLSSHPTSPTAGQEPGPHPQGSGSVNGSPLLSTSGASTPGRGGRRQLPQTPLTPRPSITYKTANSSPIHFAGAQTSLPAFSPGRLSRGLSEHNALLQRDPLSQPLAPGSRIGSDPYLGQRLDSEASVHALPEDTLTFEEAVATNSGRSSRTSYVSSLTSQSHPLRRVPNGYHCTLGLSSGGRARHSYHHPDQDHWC
T1 sequence (P54289 25-1103, further chain): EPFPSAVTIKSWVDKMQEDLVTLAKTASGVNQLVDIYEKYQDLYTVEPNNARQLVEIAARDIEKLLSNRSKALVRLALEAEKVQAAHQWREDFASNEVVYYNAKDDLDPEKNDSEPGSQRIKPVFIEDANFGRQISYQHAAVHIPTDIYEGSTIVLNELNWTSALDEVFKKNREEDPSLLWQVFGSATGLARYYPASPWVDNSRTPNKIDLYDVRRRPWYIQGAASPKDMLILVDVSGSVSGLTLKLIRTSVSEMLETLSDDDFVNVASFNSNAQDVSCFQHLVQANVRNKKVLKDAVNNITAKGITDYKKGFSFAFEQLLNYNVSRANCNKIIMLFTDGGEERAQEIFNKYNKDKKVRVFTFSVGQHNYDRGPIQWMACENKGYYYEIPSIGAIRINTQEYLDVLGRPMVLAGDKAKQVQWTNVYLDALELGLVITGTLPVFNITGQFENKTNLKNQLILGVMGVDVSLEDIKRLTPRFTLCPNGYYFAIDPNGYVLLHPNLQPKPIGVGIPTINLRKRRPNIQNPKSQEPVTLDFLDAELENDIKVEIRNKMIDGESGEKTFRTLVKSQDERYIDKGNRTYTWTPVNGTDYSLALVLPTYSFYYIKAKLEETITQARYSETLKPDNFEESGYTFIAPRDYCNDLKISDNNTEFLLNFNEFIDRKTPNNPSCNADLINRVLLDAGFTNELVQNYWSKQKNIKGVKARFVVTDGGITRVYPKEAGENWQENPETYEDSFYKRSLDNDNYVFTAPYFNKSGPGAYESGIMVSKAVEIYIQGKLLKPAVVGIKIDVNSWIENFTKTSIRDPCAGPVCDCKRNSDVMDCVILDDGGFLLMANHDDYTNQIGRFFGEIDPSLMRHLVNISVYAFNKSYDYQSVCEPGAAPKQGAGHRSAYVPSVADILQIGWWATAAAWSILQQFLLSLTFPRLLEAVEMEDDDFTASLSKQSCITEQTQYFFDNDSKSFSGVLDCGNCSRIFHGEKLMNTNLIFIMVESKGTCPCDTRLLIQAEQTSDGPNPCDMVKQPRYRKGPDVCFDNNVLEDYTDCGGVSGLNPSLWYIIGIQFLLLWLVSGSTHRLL
T1 sequence (P54284 whole entry, further chain): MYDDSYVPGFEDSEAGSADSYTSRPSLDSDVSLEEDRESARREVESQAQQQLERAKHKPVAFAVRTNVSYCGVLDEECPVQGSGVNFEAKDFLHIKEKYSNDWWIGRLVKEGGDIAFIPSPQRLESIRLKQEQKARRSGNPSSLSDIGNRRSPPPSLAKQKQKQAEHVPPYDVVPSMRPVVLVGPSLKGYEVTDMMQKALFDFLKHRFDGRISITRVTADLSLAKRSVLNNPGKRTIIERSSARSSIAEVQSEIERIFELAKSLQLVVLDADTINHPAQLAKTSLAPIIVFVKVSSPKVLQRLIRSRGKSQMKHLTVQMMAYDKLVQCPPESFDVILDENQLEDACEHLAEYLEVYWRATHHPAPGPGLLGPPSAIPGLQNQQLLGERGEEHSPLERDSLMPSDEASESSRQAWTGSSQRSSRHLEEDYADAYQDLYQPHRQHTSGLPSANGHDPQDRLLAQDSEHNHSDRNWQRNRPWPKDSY

Structure (SMILES)	inhibition at 3 µM [%]
Cc1c(-c2ccc(C(F)(F)F)cc2)c(C(=O)N2CCOCC2)n(Cc2ccccc2)c1C(F)(F)F [SC-102, [1-Benzyl-4-methyl-5-(trifluoromethyl)-3-[4-(trifluoromethyl)-phenyl]-1H-pyrrol-2-yl]-morpholin-4-yl-methanone]	75 to 95
Cc1c(-c2ccc(Cl)c(F)c2)c(C(=O)N2CCOCC2)n(Cc2ccccc2)c1C(F)(F)F [SC-103, [1-Benzyl-3-(4-chloro-3-fluoro-phenyl)-4-methyl-5-(trifluoromethyl)-1H-pyrrol-2-yl]-morpholin-4-yl-methanone]	75 to 95
Cc1c(-c2ccc(F)c(Cl)c2)c(C(=O)N2CCOCC2)n(Cc2ccccc2)c1C(F)(F)F [SC-104, [1-Benzyl-3-(3-chloro-4-fluoro-phenyl)-4-methyl-5-(trifluoromethyl)-1H-pyrrol-2-yl]-morpholin-4-yl-methanone]	75 to 95
Cc1c(-c2ccc(OC(F)(F)F)cc2)c(C(=O)N2CCOCC2)n(Cc2ccccc2)c1C(F)(F)F [SC-105, [1-Benzyl-4-methyl-5-(trifluoromethyl)-3-[4-(trifluoromethyloxy)-phenyl]-1H-pyrrol-2-yl]-morpholin-4-yl-methanone]	75 to 95
Cc1c(-c2ccc(Cl)cc2)c(C(=O)N(C)CC(C)(C)CO)n(Cc2ccccc2)c1C(F)(F)F [SC-106, 1-Benzyl-3-(4-chlorophenyl)-N-(3-hydroxy-2,2-dimethyl-propyl)-N,4-dimethyl-5-(trifluoromethyl)-1H-pyrrole-2-carboxylic acid amide]	> 95
Cc1c(-c2ccc(Cl)cc2F)c(C(=O)N(C)CC(C)(C)CO)n(Cc2ccccc2)c1C(F)(F)F [SC-107, 1-Benzyl-3-(4-chloro-2-fluoro-phenyl)-N-(3-hydroxy-2,2-dimethyl-propyl)-N,4-dimethyl-5-(trifluoromethyl)-1H-pyrrole-2-carboxylic acid amide]	> 95
Cc1c(-c2ccc(Cl)cc2)c(C(=O)N(C)CCC(C)(C)O)n(Cc2ccccc2)c1C(F)(F)F [SC-113, 1-Benzyl-3-(4-chlorophenyl)-N-(3-hydroxy-3-methyl-butyl)-N,4-dimethyl-5-(trifluoromethyl)-1H-pyrrole-2-carboxylic acid amide]	> 95
Cc1c(-c2ccc(Cl)cc2)c(C(=O)N(C)CC2(CO)CC2)n(Cc2ccccc2)c1C(F)(F)F [SC-115, 1-Benzyl-3-(4-chlorophenyl)-N-[[1-(hydroxymethyl)-cyclopropyl]-methyl]-N,4-dimethyl-5-(trifluoromethyl)-1H-pyrrole-2-carboxylic acid amide]	> 95
Cc1c(-c2ccc(Cl)cc2)c(C(=O)N(C)CC2(CO)CCC2)n(Cc2ccccc2)c1C(F)(F)F [SC-116, 1-Benzyl-3-(4-chlorophenyl)-N-[[1-(hydroxymethyl)-cyclobutyl]-methyl]-N,4-dimethyl-5-(trifluoromethyl)-1H-pyrrole-2-carboxylic acid amide]	> 95
Cc1c(-c2ccc(Cl)cc2)c(C(=O)N2CCC(CO)C2)n(Cc2ccccc2)c1C(F)(F)F (stereo not shown) [SC-117, [1-Benzyl-3-(4-chlorophenyl)-4-methyl-5-(trifluoromethyl)-1H-pyrrol-2-yl]-[3-(hydroxymethyl)-pyrrolidin-1-yl]-methanone]	75 to 95
Cc1c(-c2ccc(Cl)cc2)c(C(=O)N(C)CC(C)(C)CN2CCOCC2)n(Cc2ccccc2)c1C(F)(F)F [SC-118, 1-Benzyl-3-(4-chlorophenyl)-N-(2,2-dimethyl-3-morpholin-4-yl-propyl)-N,4-dimethyl-5-(trifluoromethyl)-1H-pyrrole-2-carboxylic acid amide]	> 95
CCc1c(-c2ccc(Cl)cc2)c(C(=O)N(C)CC(C)(C)C)n(Cc2ccccc2)c1C(F)(F)F [SC-119, 1-Benzyl-3-(4-chlorophenyl)-N-(2,2-dimethyl-propyl)-4-ethyl-N-methyl-5-(trifluoromethyl)-1H-pyrrole-2-carboxylic acid amide]	75 to 95
CN(CC(C)(C)C)C(=O)c1c(-c2ccc(Cl)cc2)c(C2CC2)c(C(F)(F)F)n1Cc1ccccc1 [SC-120, 1-Benzyl-3-(4-chlorophenyl)-4-cyclopropyl-N-(2,2-dimethyl-propyl)-N-methyl-5-(trifluoromethyl)-1H-pyrrole-2-carboxylic acid amide]	75 to 95
Cc1c(-c2ccc(Cl)cc2)c(C(=O)N(C)CC2CCOC2)n(Cc2ccccc2)c1C(F)(F)F (stereo not shown) [SC-121, 1-Benzyl-3-(4-chlorophenyl)-N,4-dimethyl-N-(tetrahydro-furan-3-yl-methyl)-5-(trifluoromethyl)-1H-pyrrole-2-carboxylic acid amide]	> 95
Cc1c(-c2ccc(Cl)cc2)c(C(=O)N(C)C(C)(C)CCO)n(Cc2ccccc2)c1C(F)(F)F [SC-122, 1-Benzyl-3-(4-chlorophenyl)-N-(3-hydroxy-1,1-dimethyl-propyl)-N,4-dimethyl-5-(trifluoromethyl)-1H-pyrrole-2-carboxylic acid amide]	> 95
Cc1c(-c2ccc(Cl)cc2)c(C(=O)N2CCC(S(C)(=O)=O)C2)n(Cc2ccccc2)c1C(F)(F)F (stereo not shown) [SC-123, [1-Benzyl-3-(4-chlorophenyl)-4-methyl-5-(trifluoromethyl)-1H-pyrrol-2-yl]-(3-methylsulfonyl-pyrrolidin-1-yl)-methanone]	> 95
Cc1c(-c2ccc(Cl)cc2)c(C(=O)N(C)C(CO)C(C)(C)C)n(Cc2ccccc2)c1C(F)(F)F (stereo not shown) [SC-124, 1-Benzyl-3-(4-chlorophenyl)-N-[1-(hydroxymethyl)-2,2-dimethyl-propyl]-N,4-dimethyl-5-(trifluoromethyl)-1H-pyrrole-2-carboxylic acid amide]	> 95
Cc1c(-c2ccc(Cl)cc2)c(C(=O)N(C)CC(C)(CO)CO)n(Cc2ccccc2)c1C(F)(F)F [SC-125, 1-Benzyl-3-(4-chlorophenyl)-N-[3-hydroxy-2-(hydroxymethyl)-2-methyl-propyl]-N,4-dimethyl-5-(trifluoromethyl)-1H-pyrrole-2-carboxylic acid amide]	> 95
Cc1c(-c2ccc(Cl)cc2)c(C(=O)N(C)C(C)(C)CO)n(Cc2ccccc2)c1C(F)(F)F [SC-126, 1-Benzyl-3-(4-chlorophenyl)-N-(2-hydroxy-1,1-dimethyl-ethyl)-N,4-dimethyl-5-(trifluoromethyl)-1H-pyrrole-2-carboxylic acid amide]	> 95
Cc1c(-c2ccc(Cl)cc2)c(C(=O)N(C)CCCS(C)(=O)=O)n(Cc2ccccc2)c1C(F)(F)F [SC-127, 1-Benzyl-3-(4-chlorophenyl)-N,4-dimethyl-N-(3-methylsulfonyl-propyl)-5-(trifluoromethyl)-1H-pyrrole-2-carboxylic acid amide]	> 95
CCN(CCS(C)(=O)=O)C(=O)c1c(-c2ccc(Cl)cc2)c(C)c(C(F)(F)F)n1Cc1ccccc1 [SC-128, 1-Benzyl-3-(4-chlorophenyl)-N-ethyl-4-methyl-N-(2-methylsulfonyl-ethyl)-5-(trifluoromethyl)-1H-pyrrole-2-carboxylic acid amide]	> 95
Cc1c(-c2ccc(Cl)cc2)c(C(=O)NCCS(C)(=O)=O)n(Cc2ccccc2)c1C(F)(F)F [SC-129, 1-Benzyl-3-(4-chlorophenyl)-4-methyl-N-(2-methylsulfonyl-ethyl)-5-(trifluoromethyl)-1H-pyrrole-2-carboxylic acid amide]	75 to 95
